In the NIST ThermoML archive (doi:10.1021/je060271a):
± gives the expanded uncertainty stated by the source.

Settings: 283.15 K, Liquid, Vibrating tube method

CCCCCC(=O)OCC(COC(=O)CCCCC)(COC(=O)CCCCC)COC(=O)CCCCC [pentaerythritol tetrahexanoate]
Settings	mass density [kg/m3]
1506.3 kPa	1004.9 ± 1.2
1520.4 kPa	1005.1 ± 1.2
1534.6 kPa	1005.1 ± 1.2
1551.6 kPa	1005.1 ± 1.2
1566 kPa	1005.2 ± 1.2
1580.3 kPa	1005 ± 1.2
1737.7 kPa	1005.1 ± 1.2
1752.5 kPa	1005.1 ± 1.2
1815.1 kPa	1005.3 ± 1.2
1862 kPa	1005.2 ± 1.2
1876.2 kPa	1005.2 ± 1.2
1889.8 kPa	1005.2 ± 1.2
1905.4 kPa	1005.1 ± 1.2
1918.9 kPa	1005.2 ± 1.2
1932.5 kPa	1005.2 ± 1.2
1949.3 kPa	1005.2 ± 1.2
1963.5 kPa	1005.2 ± 1.2
1978.6 kPa	1005.2 ± 1.2
1993.5 kPa	1005.3 ± 1.2
2005.3 kPa	1005.3 ± 1.2
2024.6 kPa	1005.3 ± 1.2
2039 kPa	1005.3 ± 1.2
2053.8 kPa	1005.3 ± 1.2
2068.7 kPa	1005.3 ± 1.2
2086.4 kPa	1005.3 ± 1.2
2102 kPa	1005.4 ± 1.2
2118 kPa	1005.4 ± 1.2
2136.7 kPa	1005.4 ± 1.2
2153 kPa	1005.4 ± 1.2
2165.7 kPa	1005.4 ± 1.2
2185.6 kPa	1005.4 ± 1.2
2205.4 kPa	1005.4 ± 1.2
2292.8 kPa	1005.5 ± 1.2
2303.8 kPa	1005.5 ± 1.2
2314.9 kPa	1005.4 ± 1.2
2328.2 kPa	1005.4 ± 1.2
2339.2 kPa	1005.5 ± 1.2
2350.1 kPa	1005.5 ± 1.2
2363.3 kPa	1005.4 ± 1.2
2374.2 kPa	1005.4 ± 1.2
2385.1 kPa	1005.4 ± 1.2
2398.1 kPa	1005.5 ± 1.2
2409.2 kPa	1005.6 ± 1.2
2420.2 kPa	1005.6 ± 1.2
2433.2 kPa	1005.5 ± 1.2
2443.9 kPa	1005.6 ± 1.2
2455 kPa	1005.6 ± 1.2
2468.4 kPa	1005.6 ± 1.2
2479.7 kPa	1005.6 ± 1.2
2490.8 kPa	1005.5 ± 1.2
2502 kPa	1005.6 ± 1.2
2515.9 kPa	1005.6 ± 1.2
2526.8 kPa	1005.5 ± 1.2
2552.3 kPa	1005.6 ± 1.2
2576.1 kPa	1005.6 ± 1.2
2587.9 kPa	1005.7 ± 1.2
2601.9 kPa	1005.7 ± 1.2
2613.9 kPa	1005.7 ± 1.2
2626 kPa	1005.6 ± 1.2
2640.3 kPa	1005.7 ± 1.2
2652.7 kPa	1005.6 ± 1.2
2664.9 kPa	1005.8 ± 1.2
2679.3 kPa	1005.7 ± 1.2
2692.1 kPa	1005.6 ± 1.2
2704.8 kPa	1005.7 ± 1.2
2717.4 kPa	1005.8 ± 1.2
2732.7 kPa	1005.8 ± 1.2
2745.7 kPa	1005.8 ± 1.2
2756.3 kPa	1005.7 ± 1.2
2768.9 kPa	1005.7 ± 1.2
2784.7 kPa	1005.7 ± 1.2
2800 kPa	1005.8 ± 1.2
2826.3 kPa	1005.9 ± 1.2
2841.9 kPa	1005.7 ± 1.2
2869.2 kPa	1005.8 ± 1.2
2883.2 kPa	1005.8 ± 1.2
2897.6 kPa	1005.8 ± 1.2
2911.3 kPa	1005.7 ± 1.2
2927.9 kPa	1005.8 ± 1.2
2942 kPa	1005.9 ± 1.2
2956 kPa	1005.9 ± 1.2
2973 kPa	1005.9 ± 1.2
2987.2 kPa	1005.9 ± 1.2
3001.4 kPa	1005.9 ± 1.2
3015.3 kPa	1005.8 ± 1.2
3032.1 kPa	1005.8 ± 1.2
3046.9 kPa	1005.9 ± 1.2
3061.4 kPa	1005.9 ± 1.2
3079.7 kPa	1005.7 ± 1.2
3094.3 kPa	1006 ± 1.2
3108.7 kPa	1005.9 ± 1.2
3123.8 kPa	1006 ± 1.2
3141.8 kPa	1006 ± 1.2
3157 kPa	1006 ± 1.2
3172.3 kPa	1006 ± 1.2
3187.9 kPa	1005.9 ± 1.2
3203.2 kPa	1006 ± 1.2
3221.5 kPa	1005.9 ± 1.2
3236.8 kPa	1006.1 ± 1.2
3337.6 kPa	1006.1 ± 1.2
3353.6 kPa	1006.1 ± 1.2
3404.7 kPa	1006.2 ± 1.2
3956.5 kPa	1006.4 ± 1.2
3974.5 kPa	1006.6 ± 1.2
3996.3 kPa	1006.6 ± 1.2
4014.4 kPa	1006.5 ± 1.2
4032.7 kPa	1006.5 ± 1.2
4054 kPa	1006.5 ± 1.2
4072 kPa	1006.5 ± 1.2
4090 kPa	1006.6 ± 1.2
4111.5 kPa	1006.5 ± 1.2
4129.7 kPa	1006.7 ± 1.2
4147.7 kPa	1006.6 ± 1.2
4165.7 kPa	1006.5 ± 1.2
4186.7 kPa	1006.6 ± 1.2
4204.2 kPa	1006.6 ± 1.2
4221.8 kPa	1006.7 ± 1.2
4239.5 kPa	1006.7 ± 1.2
4260.6 kPa	1006.6 ± 1.2
4277.8 kPa	1006.6 ± 1.2
4294.9 kPa	1006.7 ± 1.2
4314.8 kPa	1006.6 ± 1.2
4331.6 kPa	1006.6 ± 1.2
4348.2 kPa	1006.7 ± 1.2
4364.2 kPa	1006.7 ± 1.2
4383.5 kPa	1006.7 ± 1.2
4399.6 kPa	1006.7 ± 1.2
4414.7 kPa	1006.7 ± 1.2
4432.7 kPa	1006.6 ± 1.2
4448.3 kPa	1006.8 ± 1.2
4462.4 kPa	1006.6 ± 1.2
4476.2 kPa	1006.7 ± 1.2
4489.5 kPa	1006.7 ± 1.2
4504.9 kPa	1006.8 ± 1.2
4517.6 kPa	1006.8 ± 1.2
4530.4 kPa	1006.7 ± 1.2
4542.7 kPa	1006.7 ± 1.2
4556.9 kPa	1006.8 ± 1.2
4568.3 kPa	1006.8 ± 1.2
4579.5 kPa	1006.7 ± 1.2
4590.6 kPa	1006.8 ± 1.2
4604.1 kPa	1006.8 ± 1.2
4613.3 kPa	1006.9 ± 1.2
4626.1 kPa	1006.8 ± 1.2
4636.7 kPa	1006.7 ± 1.2
4649 kPa	1006.8 ± 1.2
4658.7 kPa	1006.9 ± 1.2
4668 kPa	1006.9 ± 1.2
4676.2 kPa	1006.8 ± 1.2
4685.2 kPa	1006.8 ± 1.2
4692.6 kPa	1006.9 ± 1.2
4700 kPa	1006.9 ± 1.2
4708.4 kPa	1006.8 ± 1.2
4714.4 kPa	1006.8 ± 1.2
4721.3 kPa	1006.9 ± 1.2
4726.5 kPa	1006.8 ± 1.2
4731.5 kPa	1006.9 ± 1.2
4736.6 kPa	1006.9 ± 1.2
4742.6 kPa	1006.9 ± 1.2
4748 kPa	1006.9 ± 1.2
4753 kPa	1006.9 ± 1.2
4759.1 kPa	1006.9 ± 1.2
4776 kPa	1006.9 ± 1.2
4786.1 kPa	1007 ± 1.2
4792.3 kPa	1006.9 ± 1.2
4802.7 kPa	1006.8 ± 1.2
4808.2 kPa	1006.8 ± 1.2
4814.3 kPa	1006.9 ± 1.2
4819.8 kPa	1006.9 ± 1.2
4825.4 kPa	1007 ± 1.2
4830.4 kPa	1007 ± 1.2
4835.6 kPa	1007 ± 1.2
4841.6 kPa	1006.9 ± 1.2
4847.2 kPa	1007 ± 1.2
4852.3 kPa	1006.9 ± 1.2
4858.9 kPa	1007 ± 1.2
4864.1 kPa	1007 ± 1.2
4869.3 kPa	1007 ± 1.2
4874.5 kPa	1007 ± 1.2
4881.1 kPa	1007 ± 1.2
4886.6 kPa	1006.9 ± 1.2
4892 kPa	1006.9 ± 1.2
4898.2 kPa	1006.9 ± 1.2
4903.6 kPa	1007 ± 1.2
4909.8 kPa	1007 ± 1.2
4915.2 kPa	1007 ± 1.2
4920.5 kPa	1006.9 ± 1.2
4926.4 kPa	1007.1 ± 1.2
4932 kPa	1006.8 ± 1.2
4938.5 kPa	1006.9 ± 1.2
4943.9 kPa	1007 ± 1.2
4949.3 kPa	1007 ± 1.2
4955.8 kPa	1007 ± 1.2
4961.4 kPa	1007 ± 1.2
4966.9 kPa	1007 ± 1.2
4972.8 kPa	1007 ± 1.2
4978 kPa	1007 ± 1.2
4984.9 kPa	1007 ± 1.2
4990.4 kPa	1007.2 ± 1.2
4996.2 kPa	1007 ± 1.2
5002.7 kPa	1007.2 ± 1.2
5008.1 kPa	1007 ± 1.2
5013.8 kPa	1007.1 ± 1.2
5020.4 kPa	1007 ± 1.2
5026.1 kPa	1007 ± 1.2
5031.5 kPa	1007.1 ± 1.2
5037.2 kPa	1007 ± 1.2
5044.1 kPa	1007.2 ± 1.2
5049.5 kPa	1007.1 ± 1.2
5055.5 kPa	1007 ± 1.2
5060.9 kPa	1007.1 ± 1.2
5067.8 kPa	1007 ± 1.2
5073.5 kPa	1007.2 ± 1.2
5079.2 kPa	1007.1 ± 1.2
5085.4 kPa	1007.1 ± 1.2
5091.5 kPa	1007.1 ± 1.2
5098.2 kPa	1007 ± 1.2
5103.9 kPa	1007.1 ± 1.2
5109.8 kPa	1007 ± 1.2
5115.5 kPa	1007.1 ± 1.2
5122.3 kPa	1007 ± 1.2
5128.3 kPa	1007.1 ± 1.2
5133.9 kPa	1007.2 ± 1.2
5138.7 kPa	1007.1 ± 1.2
5147 kPa	1007.2 ± 1.3
5152.5 kPa	1007 ± 1.2
5158.3 kPa	1007.2 ± 1.2
5164.7 kPa	1007.2 ± 1.2
5169.6 kPa	1007.1 ± 1.2
5176.9 kPa	1007 ± 1.2
5183.3 kPa	1007.2 ± 1.2
5189 kPa	1007.1 ± 1.2
5194.8 kPa	1007.2 ± 1.2
5201.6 kPa	1007.1 ± 1.2
5207.6 kPa	1007 ± 1.2
5212.7 kPa	1007.2 ± 1.2
5218.4 kPa	1007.2 ± 1.2
5227 kPa	1007.3 ± 1.2
5232.6 kPa	1007.1 ± 1.2
5237.2 kPa	1007.1 ± 1.2
5244.5 kPa	1007.2 ± 1.2
5250.5 kPa	1007.1 ± 1.2
5256.8 kPa	1007.2 ± 1.2
5263.7 kPa	1007.2 ± 1.2
5270.8 kPa	1007.3 ± 1.2
5276.8 kPa	1007.2 ± 1.2
5282.7 kPa	1007.3 ± 1.2
5290.2 kPa	1007.4 ± 1.2
5296 kPa	1007.1 ± 1.2
5302.1 kPa	1007.3 ± 1.2
5453.3 kPa	1007.3 ± 1.2
5459.7 kPa	1007.3 ± 1.2
5467.3 kPa	1007.4 ± 1.2
5473.7 kPa	1007.4 ± 1.2
5479.9 kPa	1007.2 ± 1.2
5486.3 kPa	1007.3 ± 1.2
5494.3 kPa	1007.3 ± 1.2
5501 kPa	1007.3 ± 1.2
5507.2 kPa	1007.4 ± 1.2
5514 kPa	1007.4 ± 1.2
5528.5 kPa	1007.4 ± 1.2
5534.4 kPa	1007.4 ± 1.2
5540.6 kPa	1007.4 ± 1.2
5548.4 kPa	1007.4 ± 1.2
5555 kPa	1007.4 ± 1.2
5561.9 kPa	1007.3 ± 1.2
5569.7 kPa	1007.4 ± 1.2
5575.9 kPa	1007.4 ± 1.2
5582.8 kPa	1007.5 ± 1.2
5589.4 kPa	1007.4 ± 1.2
5597.4 kPa	1007.3 ± 1.2
5604.1 kPa	1007.5 ± 1.2
5610.3 kPa	1007.4 ± 1.2
5618.3 kPa	1007.4 ± 1.2
5625 kPa	1007.4 ± 1.2
5631.6 kPa	1007.4 ± 1.2
5639.6 kPa	1007.4 ± 1.2
5646.1 kPa	1007.5 ± 1.2
5652.9 kPa	1007.4 ± 1.2
5661 kPa	1007.5 ± 1.2
5667.7 kPa	1007.5 ± 1.2
5674.8 kPa	1007.3 ± 1.2
5681.2 kPa	1007.4 ± 1.2
5687.9 kPa	1007.4 ± 1.2
5696.2 kPa	1007.5 ± 1.2
5703 kPa	1007.4 ± 1.2
5709.5 kPa	1007.5 ± 1.2
5716.6 kPa	1007.5 ± 1.2
5724.4 kPa	1007.5 ± 1.2
